# Laboratory results reported in PMC12299904, “Purine–Hydrazone Scaffolds as Potential Dual EGFR/HER2 Inhibitors” (Pharmaceuticals, 2025).
# “And” between values parts separate entries of the source, which are not always exact repeats. Equal values may be shown once. “Also recorded” adds a separate entry of the source. Read-outs that look alike come from different tables or passages of the source.
# How the values were obtained:
# [1] = tested on: A549 cells; experiment: In vitro cytotoxicity assay (MTT), A549; conditions: for IC50 / viability at 10 µM: Homo sapiens, A549, 48 h; for viability at 10 µM: read-out: percentage of cell viability, A549; for Selectivity index (SI), A549: IC50 against MRC-5/IC50 against A549
# Procedure: (§1) The selected cell lines include A549, a lung cancer cell line that is characterized by its high expression of EGFR; SKOV-3, an ovarian cancer cell line, selected for its overexpression of both EGFR and HER2; and the breast cancer cell line (SKBR-3), characterized by HER2 overexpression.
# (§2) Cells were passaged regularly at around 80% confluency using […] and maintained in 75 cm^2 flasks at 37 °C in a humidified atmosphere containing 5% CO2.
# (§3) Approximately 10 × 10^3 cells were seeded per well of the 96-well plates using drug-free media and incubated for 24 h. […] After 48 h of drug exposure, the supernatant was aspirated, and the cells were washed with 100 μL of PBS. The MTT assay was performed by creating a stock solution of MTT at a concentration of 5 mg/mL in PBS. From this stock, a solution of MTT in the cell culture media was prepared to achieve a final concentration of 0.5 mg/mL. […] The MTT solution was thereafter removed, and the generated formazan crystals were dissolved by adding 100 μL of propanol/DMSO (50:50) per well. Absorbance was measured at 570 nm, and IC50 values for each compound were calculated by comparison against negative untreated controls.
# [2] = tested on: SKOV-3 cells; experiment: In vitro cytotoxicity assay (MTT), SKOV-3; type: cell-based, human; conditions: for IC50 / viability at 10 µM: MTT, 48 h; for IC50: mean ± SD, three experiments; for viability at 10 µM: SK-OV-3, read-out: percentage of cell viability, SKOV-3; for Selectivity index (SI), SKOV-3: IC50 against MRC-5/IC50 against SKOV-3
# Procedure: as §1, §2, §3
# [3] = tested on: A2780 cells; experiment: In vitro cytotoxicity assay (MTT), A2780; type: cell-based; conditions: Homo sapiens, 48 h, read-out: percentage of cell viability, A2780
# [4] = tested on: SKBR-3 cells; experiment: In vitro cytotoxicity assay (MTT), SKBR-3; type: cell-based, human; conditions: for IC50: MTT, 48 h, mean ± SD, three experiments; for Selectivity index (SI), SKBR-3: IC50 against MRC-5/IC50 against SKBR-3
# Procedure: as §1, §2, §3
# [5] = In vitro cytotoxicity assay (MTT), normal cell line MRC-5; type: cell-based; conditions: MRC-5 normal embryonic lung cells, normal human embryonic lung cell line, mean ± SD
# Procedure: as §2, §3
# [6] = tested on: A549, SKOV-3, A2780, SKBR-3 cells; experiment: MTT assay, ranges stated over several cell lines; type: cell-based, human; conditions: Homo sapiens; 10 µM, 48 h; A549 and SKOV-3; read-out: cell viability range for A549 and SKOV-3
# Procedure: as §1, §2, §3
# [7] = molecular target: T1, EGFR (Homo sapiens, UniProt P00533); experiment: In vitro enzyme inhibition assay, EGFR Kinase Assay Kit (BPS Bioscience); type: biochemical; conditions: three independent experiments; read-out: Protein Kinase Inhibition IC50, EGFR
# T1 construct: purchased BPS Bioscience 40321
# [8] = molecular target: T2, HER2 (Homo sapiens, UniProt P04626); experiment: In vitro enzyme inhibition assay, HER2 Kinase Assay Kit (BPS Bioscience); type: biochemical; conditions: three independent experiments; read-out: Protein Kinase Inhibition IC50, HER2
# T2 construct: purchased BPS Bioscience 40721
# [9] = tested on: A549 cells; experiment: Cell cycle assay (PI, flow cytometry); type: cell-based, human; conditions: A549, IC50 concentration; for Cell cycle comment / DNA Content (%) %G0–G1 / DNA Content (%) %G2/M / DNA Content (%) %S: 24 h; for DNA Content (%) %G0–G1 / DNA Content (%) %G2/M / DNA Content (%) %S: mean ± SD; for Cell Cycle Distribution Index (CDI): CDI = (G2/M + S)/(G0–G1)
# Procedure: In a flat-bottom 6-well plate, 3 × 10^5 A549 cells were seeded per well and incubated at 37 °C for 24 h to allow attachment. […] Following a 24 h incubation period, the supernatant was removed by suction, and adherent cells were washed with PBS and collected with trypsin. Additionally, negative control (untreated) samples were also prepared. The cells were resuspended in 2 mL of 80% v/v of cold methanol for 45 min to achieve fixation. After centrifugation, the methanol was discarded, and the resulting cell pellets were washed and stained at room temperature for 30 min in the dark using propidium iodide PI (10% v/v of a 1 mg/mL stock solution in PBS) and RNAse (15% v/v of a 1 mg/mL stock solution in PBS). The cells were analyzed using flow cytometry, reading histograms in the red channel adjusted to PI (Em. 617 nm, Ex. 535 nm).
# [10] = tested on: A549 cells; experiment: Apoptosis analysis (Annexin V-FITC/PI, flow cytometry); type: cell-based, human; conditions: A549, IC50 concentration, 24 h; for Apoptosis, Early / Apoptosis, Late / Necrosis: mean ± SD, % printed in text only
# Procedure: Briefly, in flat-bottom 6-well plates, a total of 3 × 10^5 A549 cells were seeded per well and maintained at 37 °C for 24 h in a CO2 humidified atmosphere. Next, the cells were subjected to treatment with the equipotent concentration (1xIC50) of the tested compounds in the cell culture media. Following a 24 h incubation period, the supernatant was removed by suction, and attached cells were washed with PBS and collected using trypsin. Following the quenching of trypsin with culture media, the cells were resuspended as a single cell suspension in Annexin V binding buffer with 1% (v/v) propidium iodide and 1% (v/v) Annexin V-FITC. Negative (untreated) control samples were also included in the experiment. The samples were analyzed using flow cytometry, reading PI at Em. 617 nm, Ex. 535 nm, and Annexin-V-FITC at Em. 520 nm, Ex. 488 nm, while collecting 20,000 events/sample.
# [11] = read-out: Cytotoxicity (IC50), A549, MTT, 48 h, mean ± SD, three experiments
# T2 sequence (P04626 23-1255): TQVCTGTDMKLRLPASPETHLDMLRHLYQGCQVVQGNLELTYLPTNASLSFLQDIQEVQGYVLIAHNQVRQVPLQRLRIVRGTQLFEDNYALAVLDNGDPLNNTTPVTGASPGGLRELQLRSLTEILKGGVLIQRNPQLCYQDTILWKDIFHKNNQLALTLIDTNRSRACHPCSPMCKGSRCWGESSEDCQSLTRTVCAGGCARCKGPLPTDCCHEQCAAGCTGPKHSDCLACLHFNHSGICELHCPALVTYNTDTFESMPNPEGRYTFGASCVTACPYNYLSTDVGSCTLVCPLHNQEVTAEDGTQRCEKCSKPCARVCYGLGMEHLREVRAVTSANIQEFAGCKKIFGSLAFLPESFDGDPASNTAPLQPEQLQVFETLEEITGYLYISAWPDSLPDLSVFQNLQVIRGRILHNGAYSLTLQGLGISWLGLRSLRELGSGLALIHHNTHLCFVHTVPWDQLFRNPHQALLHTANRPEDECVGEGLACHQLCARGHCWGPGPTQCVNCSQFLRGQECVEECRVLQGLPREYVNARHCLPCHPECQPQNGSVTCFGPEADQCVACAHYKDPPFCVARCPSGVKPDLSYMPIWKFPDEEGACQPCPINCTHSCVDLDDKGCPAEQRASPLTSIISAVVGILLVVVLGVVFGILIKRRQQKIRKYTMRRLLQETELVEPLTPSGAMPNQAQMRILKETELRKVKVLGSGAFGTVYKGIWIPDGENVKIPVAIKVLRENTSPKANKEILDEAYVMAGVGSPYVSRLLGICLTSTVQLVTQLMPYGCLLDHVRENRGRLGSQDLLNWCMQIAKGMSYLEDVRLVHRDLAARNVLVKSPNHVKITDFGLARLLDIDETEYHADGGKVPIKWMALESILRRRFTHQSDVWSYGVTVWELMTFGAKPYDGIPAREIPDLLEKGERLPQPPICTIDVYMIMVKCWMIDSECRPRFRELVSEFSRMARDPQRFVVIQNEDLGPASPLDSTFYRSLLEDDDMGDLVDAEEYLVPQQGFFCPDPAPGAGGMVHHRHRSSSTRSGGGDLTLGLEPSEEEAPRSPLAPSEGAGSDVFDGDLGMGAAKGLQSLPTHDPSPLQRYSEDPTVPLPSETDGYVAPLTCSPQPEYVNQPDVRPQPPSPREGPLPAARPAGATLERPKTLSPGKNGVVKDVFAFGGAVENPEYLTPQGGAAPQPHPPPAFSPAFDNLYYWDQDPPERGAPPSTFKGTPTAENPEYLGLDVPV
# T1 sequence (P00533 25-1210): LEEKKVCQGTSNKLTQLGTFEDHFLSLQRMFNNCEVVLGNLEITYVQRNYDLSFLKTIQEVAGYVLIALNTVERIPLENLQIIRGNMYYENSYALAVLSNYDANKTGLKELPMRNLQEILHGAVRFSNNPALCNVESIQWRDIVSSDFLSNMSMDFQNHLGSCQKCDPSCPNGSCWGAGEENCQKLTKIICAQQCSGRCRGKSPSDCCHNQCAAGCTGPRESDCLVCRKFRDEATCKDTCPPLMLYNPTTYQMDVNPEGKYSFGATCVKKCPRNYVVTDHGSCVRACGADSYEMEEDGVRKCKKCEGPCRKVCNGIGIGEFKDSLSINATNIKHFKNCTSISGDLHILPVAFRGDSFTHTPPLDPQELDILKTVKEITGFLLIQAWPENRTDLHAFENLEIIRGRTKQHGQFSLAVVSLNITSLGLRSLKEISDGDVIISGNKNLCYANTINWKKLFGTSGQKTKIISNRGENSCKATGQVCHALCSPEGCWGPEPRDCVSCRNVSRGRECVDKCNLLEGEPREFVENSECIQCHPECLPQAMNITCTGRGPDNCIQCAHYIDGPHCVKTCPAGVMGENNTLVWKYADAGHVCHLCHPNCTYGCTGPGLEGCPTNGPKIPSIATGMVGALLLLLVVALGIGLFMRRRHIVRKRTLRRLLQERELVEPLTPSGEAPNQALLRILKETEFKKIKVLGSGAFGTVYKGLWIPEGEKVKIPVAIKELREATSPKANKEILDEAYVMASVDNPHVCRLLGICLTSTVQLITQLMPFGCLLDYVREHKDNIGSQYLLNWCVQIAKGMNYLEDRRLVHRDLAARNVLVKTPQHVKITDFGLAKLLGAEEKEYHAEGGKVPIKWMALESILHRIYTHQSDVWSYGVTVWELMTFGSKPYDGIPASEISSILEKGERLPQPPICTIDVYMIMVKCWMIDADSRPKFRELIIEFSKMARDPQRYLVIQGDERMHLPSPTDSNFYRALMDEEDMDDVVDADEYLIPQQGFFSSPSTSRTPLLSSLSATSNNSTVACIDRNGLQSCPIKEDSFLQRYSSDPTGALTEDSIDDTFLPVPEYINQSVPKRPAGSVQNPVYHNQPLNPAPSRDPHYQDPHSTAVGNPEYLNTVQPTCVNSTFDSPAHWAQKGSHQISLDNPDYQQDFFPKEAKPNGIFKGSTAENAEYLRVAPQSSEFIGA
compound,measurement,setting,value
"C#Cc1cccc(Nc2ncnc3cc(OCCOC)c(OCCOC)cc23)c1 [Erlotinib, erlotinib, reference compound]",IC50,"[1]; read-out: Cytotoxicity (IC50), A549",2420 ± 784 nM
same,viability at 10 µM,[1],48%
same,IC50,"[2]; Homo sapiens, SK-OV-3, 48 h",5180 ± 1200 nM
same,viability at 10 µM,[2]; Homo sapiens,44%
same,viability at 10 µM,[3],39%
same,IC50,"[4]; Homo sapiens, SK-BR-3, 48 h",5120 ± 879 nM
same,IC50 at 48 h,[5],19360 ± 138 nM
"O=C(N/N=C/c1cccc2ccccc12)c1ccc(Nc2ncnc3nc[nH]c23)cc1 [23a, (E)-4-((7H-Purin-6-yl)amino)-N′-(naphthalen-1-ylmethylene) benzohydrazide]",viability at 10 µM,[1],74%
same,viability at 10 µM,[2]; Homo sapiens,92%
"O=C(N/N=C/c1cccc(C(F)(F)F)c1)c1ccc(Nc2ncnc3nc[nH]c23)cc1 [16a, (E)-4-((7H-Purin-6-yl)amino)-N′-(3-(trifluoromethyl)benzylidene)benzohydrazide]",viability at 10 µM,[1],68%
same,viability at 10 µM,[2]; Homo sapiens,69%
"COc1cc(C)c(/C=N/NC(=O)c2ccc(Nc3ncnc4c3ncn4C3CCCC3)cc2)cc1C [18b, (E)-4-((9-cyclopentyl-9H-purin-6-yl)amino)-N′-(4-methoxy-2,5-dimethylbenzylidene) benzohydrazide]",viability at 10 µM,[6],81 to 100%
"O=C(N/N=C/c1cccc(-c2ccccc2)c1)c1ccc(Nc2ncnc3c2ncn3C2CCCC2)cc1 [19b, (E)-N′-((1,1′-biphenyl)-3-ylmethylene)-4-((9-cyclopentyl-9H-purin-6-yl)amino)benzohydrazide]",IC50,[1]; [11],1840 ± 82 nM
same,IC50,"[2]; Homo sapiens, SK-OV-3, 48 h",15600 ± 1480 nM
same,IC50,"[4]; Homo sapiens, SK-BR-3, 48 h",3200 ± 899 nM
"O=C(N/N=C/c1cccc2ccccc12)c1ccc(Nc2ncnc3c2ncn3C2CCCC2)cc1 [23b, (E)-4-((9-cyclopentyl-9H-purin-6-yl)amino)-N′-(naphthalen-1-ylmethylene)benzohydrazide]",viability at 10 µM,[6],81 to 100%
"O=C(N/N=C/c1ccc([N+](=O)[O-])cc1)c1ccc(Nc2ncnc3nc[nH]c23)cc1 [15a, (E)-4-((7H-Purin-6-yl)amino)-N′-(4-nitrobenzylidene)benzohydrazide]",viability at 10 µM,[1],49%
same,viability at 10 µM,[2]; Homo sapiens,44%
"O=C(N/N=C/c1ccc(F)c(C(F)(F)F)c1)c1ccc(Nc2ncnc3nc[nH]c23)cc1 [17a, (E)-4-((7H-Purin-6-yl)amino)-N′-(4-fluoro-3-(trifluoromethyl)benzylidene) benzohydrazide]",viability at 10 µM,[1],59%
same,viability at 10 µM,[2]; Homo sapiens,63%
"N#Cc1ccc(/C=N/NC(=O)c2ccc(Nc3ncnc4nc[nH]c34)cc2)cc1 [7a, (E)-4-((7H-Purin-6-yl)amino)-N′-(4-cyanobenzylidene)benzohydrazide]",viability at 10 µM,[1],50%
same,viability at 10 µM,[2]; Homo sapiens,58%
"CS(=O)(=O)CCNCc1ccc(-c2ccc3ncnc(Nc4ccc(OCc5cccc(F)c5)c(Cl)c4)c3c2)o1 [Lapatinib, lapatinib, reference compound]",IC50,[1]; [11],11600 ± 249 nM
same,IC50,"[2]; Homo sapiens, SK-OV-3, 48 h",17000 ± 2570 nM
same,IC50,"[4]; Homo sapiens, SK-BR-3, 48 h",8540 ± 640 nM
same,IC50 at 48 h,[5],43940 ± 420 nM
"O=C(N/N=C/c1ccccc1)c1ccc(Nc2ncnc3nc[nH]c23)cc1 [6a, (E)-4-((7H-Purin-6-yl)amino)-N′-benzylidenebenzohydrazide]",viability at 10 µM,[1],63%
same,viability at 10 µM,[2]; Homo sapiens,85%
"NS(=O)(=O)c1cc(/C=N/NC(=O)c2ccc(Nc3ncnc4c3ncn4C3CCCC3)cc2)ccc1F [22b, (E)-5-((2-(4-((9-cyclopentyl-9H-purin-6-yl)amino)benzoyl)hydrazineylidene)methyl)-2-fluorobenzenesulfonamide]",IC50,[1]; [11],3950 ± 615 nM
same,viability at 10 µM,[1],35%
same,"Selectivity index (SI), A549",[1],15.34
same,IC50,"[2]; Homo sapiens, SK-OV-3, 48 h",1540 ± 470 nM
same,viability at 10 µM,[2]; Homo sapiens,31%
same,"Selectivity index (SI), SKOV-3",[2],39.32
same,IC50,[2],1540 ± 470 nM
same,viability at 10 µM,[3],47%
same,IC50,"[4]; Homo sapiens, SK-BR-3, 48 h",3800 ± 1400 nM
same,"Selectivity index (SI), SKBR-3",[4],15.94
same,IC50,[4],3800 ± 1400 nM
same,IC50 at 48 h,[5],60590 ± 329 nM
same,IC50,[7],70 nM and 74 nM
same,IC50,[8],30 nM and 33 nM
same,Cell cycle comment,[9],arrests the cell cycle at the G1 phase; also recorded: Cell cycle arrest@G1
same,DNA Content (%) %G0–G1,[9],77.0% and 77.04% and 77.04 ± 1.85 %
same,DNA Content (%) %G2/M,[9],4.4% and 4.35% and 4.35 ± 0.29 %
same,DNA Content (%) %S,[9],18.6% and 18.60 ± 2.00 %
same,Cell Cycle Distribution Index (CDI),[9],0.29
same,percentage of live cells,[10],72.51%
same,"Apoptosis, Early",[10],5.92% and 5.92 ± 0.74 %
same,"Apoptosis, Late",[10],18.21% and 18.21 ± 0.12 %
same,Necrosis,[10],3.35 ± 0.49%
"O=C(N/N=C/c1cccc(-c2ccccc2)c1)c1ccc(Nc2ncnc3nc[nH]c23)cc1 [19a, (E)-4-((7H-purin-6-yl)amino)-N′-([1,1′-biphenyl]-3-ylmethylene)benzohydrazide]",IC50,[1]; [11],810 ± 139 nM
same,viability at 10 µM,[1],39%
same,"Selectivity index (SI), A549",[1],64.6
same,IC50,"[2]; Homo sapiens, SK-OV-3, 48 h",2190 ± 160 nM
same,viability at 10 µM,[2]; Homo sapiens,43%
same,"Selectivity index (SI), SKOV-3",[2],23.88
same,IC50,[2],2190 ± 164 nM
same,viability at 10 µM,[3],18%
same,IC50,"[4]; Homo sapiens, SK-BR-3, 48 h",1410 nM
same,"Selectivity index (SI), SKBR-3",[4],37.03
same,IC50,[4],1410 ± 362 nM
same,IC50 at 48 h,[5],52360 ± 283 nM
same,IC50,[7],80 nM and 81 nM
same,IC50,[8],59 ± 2 nM
same,Cell cycle comment,[9],cell cycle arrest at the G1 phase
same,DNA Content (%) %G0–G1,[9],86.9% and 86.88% and 86.88 ± 0.95 %
same,DNA Content (%) %G2/M,[9],3.9% and 3.90 ± 1.22 %
same,DNA Content (%) %S,[9],9.2% and 9.21% and 9.21 ± 1.43 %
same,Cell Cycle Distribution Index (CDI),[9],0.15
same,percentage of live cells,[10],62.3%
same,"Apoptosis, Early",[10],9.72% and 9.72 ± 1.06 %
same,"Apoptosis, Late",[10],23.13% and 23.13 ± 0.73 %
same,Necrosis,[10],4.84 ± 0.34%
"COc1ccc(/C=N/NC(=O)c2ccc(Nc3ncnc4nc[nH]c34)cc2)cc1 [13a, (E)-4-((7H-Purin-6-yl)amino)-N′-(4-methoxybenzylidene)benzohydrazide]",viability at 10 µM,[1],86%
"COc1cccc(/C=N/NC(=O)c2ccc(Nc3ncnc4nc[nH]c34)cc2)c1 [12a, (E)-4-((7H-Purin-6-yl)amino)-N′-(3-methoxybenzylidene)benzohydrazide]",viability at 10 µM,[1],75%
"O=C(N/N=C/c1ccccc1)c1ccc(Nc2ncnc3c2ncn3C2CCCC2)cc1 [6b, (E)-N′-benzylidene-4-((9-cyclopentyl-9H-purin-6-yl)amino)benzohydrazide]",viability at 10 µM,[1],50%
same,viability at 10 µM,[2]; Homo sapiens,60%
same,viability at 10 µM,[3],52%
